Results on five compounds are retold here after PubChem BioAssay AID2060336 (Molecular Pharmacology Branch, DTP, NCI, 2025).

Where “and” joins values, the source holds several entries; their conditions need not be identical. Equal values may be shown once.

This experiment deals with 958767-090-R-J1-PDC spheroid growth. As to the kind of experiment: Anticancer human tumor 958767-090-R-J1-PDC patient-derived head and neck squamous carcinoma cell line growth inhibition [IpAb]. The following applies: spheroids with HUVEC and MSC; for viability, T/C: stronger effect = lower value. The source says: Combinatorial screen of targeted agents with ipatasertib and abemaciclib in multi-cell type tumor spheroids
A high-throughput screen of multi-cell type tumor spheroids was designed to identify active combinations of targeted small molecules and ipatasertib or abemaciclib. Complex spheroids include a stromal component modeled by human endothelial cells (HUVEC) and fibroblasts modeled by human mesenchymal stem cells (MSCs). The concentration ranges selected for each drug and investigational agent were based upon clinically achievable concentrations if the clinical Cmax of the agent was known.
Compounds. The drugs and investigational agents: ipatasertib (NSC767898), abemaciclib(NSC768073), selumetinib (NSC741078), trametinib (758246), adavosertib (NSC754352), everolimus (NSC733504), sapanisertib (NSC764658), vemurafenib (NSC761431), venetoclax (NSC766270), copanlisib (NSC809693), apelisib (NSC765974), palbociblib (NSC758247), vemurafenib (NSC761431), dabrafenib (NSC764134), ravoxertinib (NSC781343), BMS-387032 (NSC767048), sotorasib (NSC818433), talazoparib (NSC767125) and afursertib (NSC778305), were obtained from the National Cancer Institute (NCI) Developmental Therapeutics Program Chemical Repository. The FDA-approved anticancer drug set is available from the NCI Developmental Therapeutics Program. […] The stock solutions were prepared in dimethyl sulfoxide (DMSO, Sigma-Aldrich, St. Louis, MO, cat. D2650) at 800-fold the tested concentration and stored at -70 degrees C prior to their use. All drugs and investigational agents were tested over a range starting from a high concentration at or near the clinical Cmax and decreasing in half-log increments. If the clinical Cmax for an agent had not been determined, the highest concentration tested was 10 microM.
NCI60 Cell Culture. NCI60 cell lines were obtained from the NCI Developmental Therapeutics Program Tumor Repository. For each lot of cells, the Repository performed Applied Biosystems AmpFLSTR Identifiler testing with PCR amplification to confirm consistency with the published Identifier STR profile for each cell line. Cells were kept in continuous culture for no more than 20 passages. The optimal seeding densities for each of the cell lines at each time point assessed were determined prior to performing the concentration response studies. Briefly, the NCI60 human tumor lines were grown as monolayers in RPMI 1640 medium supplemented with 10% FBS and 2 mmol/L L-glutamine.
An additional 9 lines were from the NCI60 cell line panel including MDA-MB-231 breast carcinoma, MDA-MB-468 breast carcinoma, MCF7 breast carcinoma, Hs578T breast carcinoma, MALME-3M melanoma, SK-MEL-2 melanoma, SK-OV-3 ovarian carcinoma, DU-145 prostate carcinoma, PC-3 prostate carcinoma, all cell lines along with major genetic alterations are listed on Table 2. Pooled donor human umbilical vein endothelial cells (HUVEC, Lonza, cat. CC-2519) and human mesenchymal stem cells (hMSC, Lonza, cat. PT-2501) were purchased from Lonza (Walkersville, MD).
PDMR cell lines were grown in complete medium (DC medium): Dulbecco's modified Eagle's medium (DMEM)/F12 supplemented with 5% fetal bovine serum (FBS), 2 mM L-glutamine, 100 U/mL penicillin and 100 µg/ml streptomycin, 0.4 µg/ml hydrocortisone, 10 ng/ml epidermal growth factor (EGF) recombinant human protein, 24 µg/mL adenine, and 0.1 mg/mL primocin. During culture from frozen stock vials, PDMR cells were cultured in the same medium containing 10 µM Y-27632 (see Table 3). The PDCs were cultured in complete DMEM/F12 media without 10 microM Y-27632 dihydrochloride for at least two passages prior to the screen. The pooled donor HUVEC and hMSC were cultured in endothelial cell growth medium 2 (PromoCell, Heidelberg, Germany, cat. C-22011) and mesenchymal stem cell growth medium 2 (PromoCell, cat. C-28009), respectively. For all experiments, HUVEC and hMSC were used at passages </=5.
[…]

Where [1] appears, read: curve of first compound, second compound 0.1 µM.
[2] abbreviates: curve of first compound, second compound 0.316 µM.
[3] abbreviates: curve of first compound, second compound 1 µM.
Where [4] appears, read: curve of first compound, second compound 3.16 µM.
Setting [5] is: curve of first compound, second compound 10 µM.
The mark [6] stands for this setting: second compound 0.1 µM, first compound 0.0316 µM.
Setting [7] is: second compound 0.1 µM, first compound 0.1 µM.
[8] abbreviates: second compound 0.1 µM, first compound 0.316 µM.
Setting [9] is: second compound 0.1 µM, first compound 1 µM.
The mark [10] stands for this setting: second compound 0.1 µM, first compound 3.16 µM.
Where [11] appears, read: second compound 0.1 µM, first compound 10 µM.
[12] abbreviates: second compound 0.316 µM, first compound 0.0316 µM.
The mark [13] stands for this setting: second compound 0.316 µM, first compound 0.1 µM.
[14] abbreviates: second compound 0.316 µM, first compound 0.316 µM.
The mark [15] stands for this setting: second compound 0.316 µM, first compound 1 µM.
[16] abbreviates: second compound 0.316 µM, first compound 3.16 µM.
Where [17] appears, read: second compound 0.316 µM, first compound 10 µM.
[18] abbreviates: second compound 1 µM, first compound 0.0316 µM.
[19] abbreviates: second compound 1 µM, first compound 0.1 µM.
Setting [20] is: second compound 1 µM, first compound 0.316 µM.
[21] abbreviates: second compound 1 µM, first compound 1 µM.
[22] abbreviates: second compound 1 µM, first compound 3.16 µM.
The mark [23] stands for this setting: second compound 1 µM, first compound 10 µM.
Where [24] appears, read: second compound 3.16 µM, first compound 0.0316 µM.
[25] abbreviates: second compound 3.16 µM, first compound 0.1 µM.
Setting [26] is: second compound 3.16 µM, first compound 0.316 µM.
Setting [27] is: second compound 3.16 µM, first compound 1 µM.
Setting [28] is: second compound 3.16 µM, first compound 3.16 µM.
Where [29] appears, read: second compound 3.16 µM, first compound 10 µM.
[30] abbreviates: second compound 10 µM, first compound 0.0316 µM.
[31] abbreviates: second compound 10 µM, first compound 0.1 µM.
[32] abbreviates: second compound 10 µM, first compound 0.316 µM.
Where [33] appears, read: second compound 10 µM, first compound 1 µM.
[34] abbreviates: second compound 10 µM, first compound 3.16 µM.
The mark [35] stands for this setting: second compound 10 µM, first compound 10 µM.
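Further: spheroids exposed to agents for 7 days.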
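Wherever viability, T/C is given: 100% = DMSO vehicle control wells.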

Turning to `C=CC(=O)N1CCN(c2nc(=O)n(-c3c(C)ccnc3C(C)C)c3nc(-c4c(O)cccc4F)c(F)cc23)C(C)C1` (stereo unspecified) + CC(C)NCC(C(=O)N1CCN(c2ncnc3c2C(C)CC3O)CC1)c1ccc(Cl)cc1, the concentration for half-maximal inhibition (IC50) came to 5020 nM under setting [1]; 1870 nM under setting [2]; 835 nM under setting [3]; 1580 nM under setting [4]; 1050 nM under setting [5]. Also, the viability, T/C reads like this: under setting [6], 82%; under setting [7], 86.5%; under setting [8], 84.4%; under setting [9], 86.4%; under setting [10], 59.9%; under setting [11], 35.2%. Also, the viability, T/C was 78.5% under setting [12]; 71.1% under setting [13]; 72.3% under setting [14]; 54.7% under setting [15]; 44.8% under setting [16]; 28.7% under setting [17]. In addition, the viability, T/C reads like this: under setting [18], 72.8%; under setting [19], 57.4%; under setting [20], 63.3%; under setting [21], 48.4%; under setting [22], 34%; under setting [23], 19.2%. Besides, the viability, T/C is, setting by setting: under setting [24], 63.9%; under setting [25], 66.9%; under setting [26], 53.8%; under setting [27], 54.5%; under setting [28], 44.9%; under setting [29], 16%. Besides, the viability, T/C was 56.2% under setting [30]; 54.6% under setting [31]; 64.9% under setting [32]; 48.1% under setting [33]; 29.6% under setting [34]; 5.8% under setting [35].

As for `Cn1nccc1Nc1nccc(-c2ccn(C(CO)c3ccc(Cl)c(F)c3)c(=O)c2)n1` (stereo unspecified) + CC(C)NCC(C(=O)N1CCN(c2ncnc3c2C(C)CC3O)CC1)c1ccc(Cl)cc1, the IC50 was 495 nM under setting [1]; 137 nM under setting [2]; 64 nM under setting [3]; 38.5 nM under setting [4]; less than 31.6 nM under setting [5]. Further, the viability, T/C under setting [6] was 86.8%; the viability, T/C under setting [7] is 65.5%; the viability, T/C under setting [8] is 56.1%; the viability, T/C under setting [9] is 43.7%; the viability, T/C under setting [10] was 28.2%; the viability, T/C under setting [11] is 13.4%. Besides, the viability, T/C is 66.5% under setting [12]; 46.4% under setting [13]; 44.6% under setting [14]; 32.8% under setting [15]; 17.7% under setting [16]; 5.2% under setting [17]. Also, the viability, T/C is 54.1% under setting [18]; 47.9% under setting [19]; 36.1% under setting [20]; 23.1% under setting [21]; 13.2% under setting [22]; 3.79% under setting [23]. Besides, the viability, T/C is, setting by setting: under setting [24], 53.6%; under setting [25], 37.1%; under setting [26], 27.8%; under setting [27], 19.4%; under setting [28], 10.4%; under setting [29], 4.11%. The viability, T/C by setting is: under setting [30], 44.7%; under setting [31], 35%; under setting [32], 24.1%; under setting [33], 15.2%; under setting [34], 8.11%; under setting [35], 3.09%.

With `Cn1cnc2c(F)c(Nc3ccc(Br)cc3Cl)c(C(=O)NOCCO)cc21`, the viability, T/C by setting is: (compound 0.00949 µM) 73% and 64.2%; (compound 0.03 µM) 48.8% and 52.3%; (compound 0.0949 µM) 32.5% and 42.5%; (compound 0.3 µM) 30.8% and 35.8%; (compound 0.949 µM) 31% and 28.7%; (compound 3 µM) 17.2% and 19.8%. Moreover, the half-inhibitory concentration (IC50) (curve of compound) was 28.4 nM and 43.7 nM.

For `CC(C)n1nc(-c2ccc3oc(N)nc3c2)c2c(N)ncnc21`, the viability, T/C (compound 0.000316 µM) was 84.9% and 95.3%; the viability, T/C (compound 0.001 µM) was 89.9% and 94.5%; the viability, T/C (compound 0.00316 µM) was 74.5% and 73.8%; the viability, T/C (compound 0.01 µM) is 55.9% and 54.9%; the viability, T/C (compound 0.0316 µM) is 36.9% and 34.2%; the viability, T/C (compound 0.1 µM) was 39.7% and 32.1%. The IC50 (curve of compound) is 13.9 nM and 11.9 nM.

As for `Cc1nc(NC(=O)N2CCCC2C(N)=O)sc1-c1ccnc(C(C)(C)C(F)(F)F)c1` (stereo unspecified), the viability, T/C is, setting by setting: (compound 0.0316 µM) 85.3% and 75%; (compound 0.1 µM) 68.5% and 71.4%; (compound 0.316 µM) 48.5% and 42.7%; (compound 1 µM) 32.3% and 36.4%; (compound 3.16 µM) 22.2% and 22.6%; (compound 10 µM) 9.48% and 9.72%. For the same compound, the concentration for half-maximal inhibition (IC50) (curve of compound) was 304 nM and 311 nM.

In general, IC50 refers to the midpoint of a concentration-inhibition curve. In general, viability, T/C refers to the result in the treated group divided by that in the control group, in per cent.
